As a reminder, the Ki is the equilibrium dissociation constant of an inhibitor or competing ligand from its target. By IC50 is commonly meant the point on the concentration scale where inhibition reaches its midpoint. A lower IC50 goes with greater potency in that assay.

Experimental findings from US6620828B2, “Thiazole compounds and pharmaceutical compositions for inhibiting protein kinases and methods for their use” (Agouron Pharmaceuticals, Inc., priority 1999, dated 2003) are described below.

In assay [1] the target is T1, CHK1 (Homo sapiens, UniProt O14757).
T1 sequence (O14757 1-476): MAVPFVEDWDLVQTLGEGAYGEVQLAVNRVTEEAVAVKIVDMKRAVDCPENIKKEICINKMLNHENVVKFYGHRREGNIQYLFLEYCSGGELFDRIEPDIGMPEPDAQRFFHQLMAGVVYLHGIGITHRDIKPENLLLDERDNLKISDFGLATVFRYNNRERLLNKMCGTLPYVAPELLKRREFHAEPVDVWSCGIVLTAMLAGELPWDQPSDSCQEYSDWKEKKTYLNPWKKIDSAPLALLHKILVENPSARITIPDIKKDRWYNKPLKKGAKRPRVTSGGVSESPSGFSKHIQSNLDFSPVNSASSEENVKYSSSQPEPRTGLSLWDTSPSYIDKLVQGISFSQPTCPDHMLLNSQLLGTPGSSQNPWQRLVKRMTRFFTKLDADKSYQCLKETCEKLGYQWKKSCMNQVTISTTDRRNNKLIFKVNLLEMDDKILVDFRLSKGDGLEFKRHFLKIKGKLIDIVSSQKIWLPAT
As to the kind of experiment: CHK1 high-throughput screening. Particulars: for % inhibition @ 20 μM: Table 4, repeated entries per example; for inhibition at 20 µM: read-out: % inhibition @ 20 μM, Table 4, repeated entries per example. The assay is classed as biochemical.

For assay [2], the target named is CDK2/Cyclin A complex (Homo sapiens, UniProt P24941). Kind of assay: CDK2/Cyclin A assay. The assay is classed as biochemical. To be noted: Table 2. The procedure, abridged: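 Radiometric assay: 150 nM CDK2/cyclin A (insect-cell CDK2, truncated cyclin A) phosphorylates His-tagged Rb fragment (residues 386-928) with 25 μM ATP plus [32P]ATP, pH 7.4 HEPES, 2% DMSO, 30 °C for 20 min. Filter-captured product counted by phosphorimager; apparent Ki from competitive or tight-binding inhibition fits.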

Assay [3] has as its target T2, CDK4/Cyclin D3 complex (Homo sapiens, UniProt P11802).
T2 construct: made in house; host or cells: insect cells co-infected with baculovirus vectors
Kind of assay: CDK4/Cyclin D assay. The class given is biochemical. To be noted: Table 2. Put shortly: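 Insect-cell-expressed CDK4/cyclin D3 (50 nM) phosphorylating His-tagged Rb fragment (residues 386-928) with 25 μM [^32P]ATP in HEPES pH 7.4, MgCl2, 2% DMSO; 20 min at 30 °C, EDTA stop. Filter-captured 32P by phosphorimager; apparent Ki from competitive or tight-binding inhibition fits.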

In assay [4] the target is T3, FAKcd409 (Homo sapiens, UniProt Q05397, P410T).
T3 construct: comprises residues methionine 409 to glutamate 689; made in house; host or cells: baculovirus vector expression system
As to the kind of experiment: FAK HTS assay. The assay is classed as biochemical. Particulars: 10 uM compound, HTS Delphia assay; for % inhibition of FAK: 10 µM.

The target in assay [5] is T4, phosphorylated VEGF-R2Δ50 (FLVK-P) (Homo sapiens, UniProt P35968, DEL940-989/E990V).
T4 construct: VEGF-R2Δ50 contains residues 806-939 and 990-1171; made in house; host or cells: baculovirus/insect cells
As to the kind of experiment: VEGF-R2 coupled spectrophotometric (FLVK-P) assay. The class given is biochemical. Particulars: for Ki: spectrophotometric assay; for inhibition at 0.05 µM: Table 3, at 50 nM. Put shortly:
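Baculovirus-expressed human VEGF-R2Δ50 (residues 806-939/990-1171, E990V) was autophosphorylated with 3 mM ATP, 40 mM MgCl2 for 2 h at 4° C. ADP formation was coupled via PK/LDH to NADH oxidation, read at 340 nm, with 5.1 mM poly(E4Y1), 1 mM ATP, 25 mM MgCl2, Hepes pH 7.5. Ki came from activity across compound concentrations.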

Assay [6] concerns human umbilical vein endothelial cells (HUVEC). Kind of assay: HUVEC proliferation assay. The assay is classed as cell-based. Particulars: Homo sapiens, HUVEC. Put shortly:
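Exponentially growing HUVEC were serum-starved 24 h (F12K + 1% FBS), pre-treated 1 h with compound (0.1% DMSO final), then stimulated with 6 ng/ml VEGF. Proliferation was read 72 h later by MTT reduction (A595). IC50 came from seven 0.5-log concentrations in triplicate; screens gave % inhibition relative to VEGF-only and starved wells.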

In assay [7] the test system is lung cancer cells (line MV522). Kind of assay: Cancer cell proliferation (MV522) assay. The assay is classed as cell-based.
Assay [8] concerns the target T5, LCK tyrosine kinase (Homo sapiens, UniProt P06239, C224D/P223M).
T5 construct: starting from amino acid residue 223 to the end of the protein at residue 509; made in house; host or cells: insect cells
As to the kind of experiment: LCK spectrophotometric assay. The class given is biochemical. To be noted: Table 3, read-out: LCK (% inh @ 1 uM).

Assay [9] addresses T6, FGF-R1 (Homo sapiens, UniProt P11362, C488A/C584S/L457V).
T6 construct: starting from the endogenous methionine residue 456 to glutamate 766; made in house; host or cells: baculovirus vector expression system
Kind of assay: FGF-R spectrophotometric assay. The assay is classed as biochemical. Particulars: Table 3; % inh @ 1 uM; read-out: FGF-P Ki (nM) (% inh @ 1 uM). Put shortly: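 Kinase domain (Met456–Glu766, baculovirus-expressed) used at 50 nM in a spectrophotometric assay run as for VEGF-R2. Substrates were 2 mM ATP and 15 mM poly(E4Y1).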

Assay [10] concerns the target T7, unphosphorylated VEGF-R2Δ50 (FLVK) (Homo sapiens, UniProt P35968, DEL940-989/E990V).
T7 construct: VEGF-R2Δ50 contains residues 806-939 and 990-1171; made in house; host or cells: baculovirus/insect cells
As to the kind of experiment: VEGF-R2 coupled spectrophotometric assay, unphosphorylated enzyme (FLVK). The class given is biochemical. To be noted: Table 3; some entries 'Slow binder'. Put shortly: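 Unphosphorylated VEGF-R2Δ50 (5 to 40 nM) with 20 mM poly(E4Y1), 3 mM ATP, 60 mM MgCl2, 2 mM MnCl2 in 200 mM Hepes pH 7.5. ADP production coupled via PK/LDH to NADH oxidation, read at 340 nm. Ki from activity at varying compound concentrations.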

“And” between values parts separate entries of the source, which are not always exact repeats. Equal entries are not always repeated. Structures can show the parent of a compound that is named as a salt.

T7 sequence (P35968 with tags, fused parts or gaps DEL940-989/E990V limits assumed): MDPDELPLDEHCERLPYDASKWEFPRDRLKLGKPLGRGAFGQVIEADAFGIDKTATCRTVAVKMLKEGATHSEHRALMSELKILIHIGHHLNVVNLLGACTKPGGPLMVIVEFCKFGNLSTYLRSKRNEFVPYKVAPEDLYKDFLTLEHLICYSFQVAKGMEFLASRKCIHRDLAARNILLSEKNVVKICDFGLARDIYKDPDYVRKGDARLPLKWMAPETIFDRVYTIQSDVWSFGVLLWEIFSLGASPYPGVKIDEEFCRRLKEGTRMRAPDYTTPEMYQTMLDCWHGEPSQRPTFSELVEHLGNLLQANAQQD
T4 sequence (P35968 with tags, fused parts or gaps DEL940-989/E990V limits assumed): as above
T6 sequence (P11362 456-766 L457V/C488A/C584S): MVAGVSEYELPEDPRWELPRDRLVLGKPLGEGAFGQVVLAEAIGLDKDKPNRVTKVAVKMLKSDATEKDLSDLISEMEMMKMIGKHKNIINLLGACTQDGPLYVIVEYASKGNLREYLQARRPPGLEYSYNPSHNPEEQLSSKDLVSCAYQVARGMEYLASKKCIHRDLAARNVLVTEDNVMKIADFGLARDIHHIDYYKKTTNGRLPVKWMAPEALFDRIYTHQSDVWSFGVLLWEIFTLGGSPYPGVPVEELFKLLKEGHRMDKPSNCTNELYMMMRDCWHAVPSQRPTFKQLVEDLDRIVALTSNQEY
T5 sequence (P06239 223-509 P223M/C224D): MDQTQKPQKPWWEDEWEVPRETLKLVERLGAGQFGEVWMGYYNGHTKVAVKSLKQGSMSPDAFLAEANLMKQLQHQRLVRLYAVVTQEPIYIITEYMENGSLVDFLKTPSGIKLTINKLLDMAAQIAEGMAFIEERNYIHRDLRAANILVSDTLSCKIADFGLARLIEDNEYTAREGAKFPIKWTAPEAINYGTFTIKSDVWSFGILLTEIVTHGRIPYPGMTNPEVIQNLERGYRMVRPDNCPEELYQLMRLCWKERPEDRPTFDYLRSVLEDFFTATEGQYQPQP
T3 sequence (Q05397 409-689 P410T): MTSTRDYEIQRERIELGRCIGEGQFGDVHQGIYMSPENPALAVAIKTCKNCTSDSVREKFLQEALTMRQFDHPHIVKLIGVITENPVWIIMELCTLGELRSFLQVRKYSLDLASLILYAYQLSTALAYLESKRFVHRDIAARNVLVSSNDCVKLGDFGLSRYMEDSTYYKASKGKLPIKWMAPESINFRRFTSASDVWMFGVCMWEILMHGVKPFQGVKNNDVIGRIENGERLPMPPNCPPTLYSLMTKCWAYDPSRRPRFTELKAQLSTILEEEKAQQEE
T2 sequence (P11802 whole entry): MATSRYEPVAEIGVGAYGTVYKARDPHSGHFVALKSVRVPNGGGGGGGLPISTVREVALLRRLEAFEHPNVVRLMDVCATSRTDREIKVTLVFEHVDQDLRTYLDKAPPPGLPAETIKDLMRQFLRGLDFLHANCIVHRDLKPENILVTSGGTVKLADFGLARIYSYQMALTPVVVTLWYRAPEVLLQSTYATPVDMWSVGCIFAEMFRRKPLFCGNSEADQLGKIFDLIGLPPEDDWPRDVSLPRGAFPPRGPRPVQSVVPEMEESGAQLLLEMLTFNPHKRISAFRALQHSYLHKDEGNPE
T2 sequence (P30281 whole entry partner): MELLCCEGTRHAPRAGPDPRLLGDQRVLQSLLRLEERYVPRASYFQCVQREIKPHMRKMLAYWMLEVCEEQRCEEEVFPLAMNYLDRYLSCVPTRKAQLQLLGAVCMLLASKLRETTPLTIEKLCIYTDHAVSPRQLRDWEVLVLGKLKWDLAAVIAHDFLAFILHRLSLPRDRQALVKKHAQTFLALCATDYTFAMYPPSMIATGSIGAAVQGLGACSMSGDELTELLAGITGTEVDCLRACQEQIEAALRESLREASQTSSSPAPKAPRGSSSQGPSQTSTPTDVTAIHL

`CCOC(=O)c1nc(-c2sc(Nc3ccc(S(N)(=O)=O)cc3)nc2N)sc1Cc1ccccc1` [A(73), 4′-Amino-5-benzyl-2′-(4-sulfamoyl-phenylamino)-[2,5′]bithiazolyl-4-carboxylic acid ethyl ester]: in assay [1], the “% inhibition @ 20 μM” value was 14.4% and 7.3%; the inhibition at 20 µM was 14.3%. For the same molecule, in [2] (at 100 (printed 100 or 100 μM)), the “CDK2 % inhibition @ 100” value was 36% @. The inhibition at 100 µM in assay [3] (at 100 (printed 100 or 100 μM)) was less than 0%. Moreover, the “% inhibition of FAK” value in assay [4] is −23% and −30%.

As to `Nc1nc(Nc2ccc3c(c2)OCCO3)sc1-c1nc(-c2cccc(NC(=O)c3ccccc3)c2)cs1` [A(45), N-{3-[4′-Amino-2′-(2,3-dihydro-benzo[1,4]dioxin-6-ylamino)-[2,5′]bithiazolyl-4-yl]-phenyl}-benzamide], the inhibition at 20 µM in assay [1] was -1%. Also, in [4], the “% inhibition of FAK” value was −13% and −4% and −6%. In assay [5] (Table 1), this molecule came in with a Ki of 9.7 nM.

On to `Cc1ccc(Nc2nc(N)c(-c3nc(-c4cccc(NC(=O)OCc5ccccc5)c4)cs3)s2)cc1` [A(36), [3-(4′-Amino-2′-p-tolylamino-[2,5′]bithiazolyl-4-yl)-phenyl]-carbamic acid benzyl ester], for which the inhibition at 20 µM in [1] came out at 2.8%. In addition, in assay [4], the “% inhibition of FAK” value was −6% and −11% and −15%. In [5] (Table 1, at 0.05, concentration unit not printed (head nM)), the “FLVK-P % inhibition @ 0.05” value is given as 36% @.

Turning to `Nc1nc(Nc2cccnc2)sc1-c1nc(-c2cccc(NC(=O)c3ccccc3)c2)cs1` [A(53), 3-(4′-Amino-4-(3-benzamidophenyl)-[2,5′]bithiazolyl-2′-ylamino)-pyridine], the inhibition at 20 µM in assay [1] was 4%. The “% inhibition of FAK” value in assay [4] is −10% and −8%. In [5] (Table 1), this molecule returned a Ki of 24 nM. The IC50 is 370 nM in assay [6] (Table 1) and more than 10000 nM in [7] (MV522, Table 1).

Regarding `Cc1cccc(Nc2nc(N)c(-c3nc(-c4cccc(NC(=O)c5ccccc5)c4)cs3)s2)c1` [A(44), [3-(4′-Amino-2′-m-tolylamino-[2,5′]bithiazolyl-4-yl)-phenyl]-benzamide], the inhibition at 20 µM in [1] was -7.1%. Further, the “% inhibition of FAK” value in [4] was −15% and −5% and −10%.

In the case of `COc1cc(Nc2nc(N)c(-c3nc(-c4cccc(C(=O)Nc5ccc(C(C)C)c(C)c5)c4)cs3)s2)cc(OC)c1OC` [A(34), 3-[4′-Amino-2′-(3,4,5-trimethoxy-phenylamino)-[2,5′]bithiazolyl-4-yl]-N-(4-isopropyl-3-methyl-phenyl)-benzamide], the “% inhibition @ 20 μM” value in assay [1] was 4.6% and −3.4%. The “% inhibition of FAK” value in [4] was −3% and −8% and −13%.

On to `CCOC(=O)c1cccc(Nc2nc(N)c(-c3nc(-c4cccc(NC(=O)c5ccccc5)c4)cs3)s2)c1` [A(40), 3-[4′-Amino-4-(3-benzoylaminophenyl)-[2,5′]bithiazolyl-2′-ylamino]-benzoic acid ethyl ester], for which the inhibition at 20 µM in assay [1] was 1%. Further, in assay [4], the inhibition at 10 µM was -6%.

Turning to `COc1cccc(C(=O)Nc2cc(-c3noc(-c4sc(Nc5cc(OC)c(OC)c(OC)c5)nc4N)n3)c(Cl)cc2F)c1` [D(70), N-(5-{5-[4-Amino-2-(3,4,5-trimethoxy-phenylamino)-thiazol-5-yl]-[1,2,4]oxadiazol-3-yl}-4-chloro-2-fluoro-phenyl)-3-methoxy-benzamide TFA salt], the values for the inhibition at 1 µM in assay [8] and in assay [9] were 61% and 59%, respectively. Further, the inhibition at 0.05 µM in [5] came to 91%. For the same molecule, the IC50 is 5.4 nM in [6] (Table 3) and more than 10000 nM in [7] (MV522, Table 3). Affinity in assay [10] was put at a Ki of 3.5 nM.

With `CC(=O)Nc1cc(Nc2nc(N)c(-c3nc(-c4cccc(NC(=O)c5ccccc5)c4)cs3)s2)ccc1C` [A(48), N-{3-[2′-(3-Acetylamino-4-methyl-phenylamino)-4′-amino-[2,5′]bithiazolyl-4-yl]-phenyl}-benzamide], the inhibition at 20 µM in assay [1] amounted to 1.3%. In assay [4], the “% inhibition of FAK” value was −2% and −8%. Besides, the Ki in [5] (Table 1) was determined as 3.1 nM. Further, the IC50 is 350 nM in assay [6] (Table 1) and more than 10000 nM in [7] (MV522, Table 1).

In the case of `COc1cc(Nc2nc(N)c(-c3nc(-c4cc(NC(=O)OC(C)(C)C)c(F)cc4Cl)no3)s2)cc(OC)c1OC` [B(14), (5-{5-[4-Amino-2-(3,4,5-trimethoxy-phenylamino)-thiazol-5-yl]-[1,2,4]oxadiazol-3-yl}-4-chloro-2-fluoro-phenyl)-carbamic acid tert-butyl ester], the inhibition at 1 µM in assay [8] stood at 10%; in assay [9] it was 46%. Also, the inhibition at 0.05 µM in assay [5] was determined as 13%. Also, the IC50 is 11 nM in assay [6] (Table 3) and more than 10000 nM in [7] (MV522, Table 3). Besides, in assay [10], the Ki worked out at 0.76 nM.

Take `Nc1nc(Nc2ccc3c(=O)[nH][nH]c(=O)c3c2)sc1-c1nc(-c2cccc(NC(=O)c3ccccc3)c2)cs1` [A(49), N-{3-[4′-Amino-2′-(1,4-dioxo-1,2,3,4-tetrahydro-phthalazin-6-ylamino)-[2,5′]bithiazolyl-4-yl]-phenyl}-benzamide]: in [1], the inhibition at 20 µM is 14.1%. In assay [4], the “% inhibition of FAK” value is −13% and −7% and −10%.

Take `CCOC(=O)c1csc(-c2sc(Nc3ccc(S(N)(=O)=O)cc3)nc2N)n1` [A(68), Ethyl 4′-amino-2′-(4-sulfamoyl-phenylamino)-[2,5′]bithiazolyl-4-carboxylate]: the figures for the Ki in assay [2] and in assay [3] were 130 nM and 4500 nM, respectively. For the same molecule, the inhibition at 10 µM in assay [4] was -18%.

On to `COc1cc(Nc2nc(N)c(-c3nc(-c4cccc(NC(=O)c5cc(C)c(O)c(C)c5)c4)cs3)s2)cc(OC)c1OC` [D(58), N-{3-[4′-Amino-2′-(3,4,5-trimethoxy-phenylamino)-[2,5′]bithiazolyl-4-yl]-phenyl}-4-hydroxy-3,5-dimethyl-benzamide], for which the results for the inhibition at 1 µM in assay [8] and in assay [9] were 29% and 23%, respectively. Further, the IC50 in assay [6] (Table 3) was more than 100 nM; in [7] (MV522, Table 3), more than 10000 nM. In addition, the Ki in assay [10] was determined as 1.4 nM.
